Measured values from ChEMBL document CHEMBL1139086, “Synthesis, characterization, antibacterial activity, and interaction with DNA of the vanadyl-enrofloxacin complex” (2007).
≈ marks a conversion by molar mass, not a printed value.

Experiments:
Assay type in all cases: functional
Staphylococcus aureus = assay: Antimicrobial activity against Staphylococcus aureus
Pseudomonas aeruginosa = assay: Antimicrobial activity against Pseudomonas aeruginosa
Escherichia coli = assay: Antimicrobial activity against Escherichia coli

MIC (Staphylococcus aureus): 8 µg/mL (≈ 22.3 µM)
MIC (Pseudomonas aeruginosa): 1 µg/mL (≈ 2.78 µM)
MIC (Escherichia coli): 1 µg/mL (≈ 2.78 µM)
Compound: CCN1CCN(c2cc3c(cc2F)c(=O)c(C(=O)O)cn3C2CC2)CC1 [ENROFLOXACIN]
